Measurements reported in patent US20100022584A1, “Modulation of Glutamine Synthetase Activity” (priority 2006, published 2010).
Residue numbers refer to the chain shown, from its start. “Also recorded” adds a separate entry of the source.

Key:
[1] = biological target: T1, glutamine synthetase mutant S52A S53A (Escherichia coli, UniProt P0A9C5, S53A/S54A); assay: HPLC forward-reaction glutamine synthetase assay with serine protease inhibitors; type: biochemical, E. coli; settings: 1 mM inhibitor; for % Reduction in ADP-based Specific Activity / % Reduction in Glutamine-based Specific Activity / % Conversion: S52A S53A; for % Reduction in ADP-based Specific Activity / % Reduction in Glutamine-based Specific Activity: 60 min pre-incubation, vs no-inhibitor control, positive = activity increased; for % Conversion: glutamine-based divided by ADP-based specific activity
T1 construct: made in house; host or cells: E. coli YMC11 (glutamine synthetase auxotroph), pBluescript II SK+
T1 sequence (P0A9C5 2-469 S53A/S54A limits assumed): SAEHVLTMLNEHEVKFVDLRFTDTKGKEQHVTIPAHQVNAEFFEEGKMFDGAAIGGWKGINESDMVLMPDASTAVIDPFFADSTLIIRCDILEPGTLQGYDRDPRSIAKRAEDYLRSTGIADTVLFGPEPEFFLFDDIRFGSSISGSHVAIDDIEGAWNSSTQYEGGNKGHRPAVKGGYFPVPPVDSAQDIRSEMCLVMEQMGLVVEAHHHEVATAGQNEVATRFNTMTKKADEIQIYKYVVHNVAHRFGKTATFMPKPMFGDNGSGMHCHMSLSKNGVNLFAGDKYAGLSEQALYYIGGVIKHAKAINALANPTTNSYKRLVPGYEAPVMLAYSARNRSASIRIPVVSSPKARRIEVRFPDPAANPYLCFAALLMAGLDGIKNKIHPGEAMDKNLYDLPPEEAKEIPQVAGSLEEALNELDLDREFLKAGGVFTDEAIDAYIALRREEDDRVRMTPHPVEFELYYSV
Experimental: (§1) This assay was set up to measure glutamine synthetase activity according to the forward reaction, and measures the amount of glutamine formed from […] of L-glutamate in the presence of MnCO3-ATP (the basis of one reaction) and MgATP (the basis of a second reaction). In addition, the amount of ADP formed is also measured in a separate assay, using the same reagents.
(§2) All enzyme preparations were adjusted to the same concentration of protein, and added to the assay mixture in a volume of 50 μl. The addition of the enzyme started the reaction, which was then allowed to proceed for 1 hour. The reaction was stopped by the addition of 6 μl of a 50% solution of trichloroacetic acid. Each assay was then aliquoted into 4 HPLC vials (150 μl per vial), two of which were assayed for glutamate and glutamine using a Phenomenex Luna 5 μC18 Column on an Agilent 100 HPLC instrument. The ATP/ADP assays were run on a Chromolith Performance RP-18c column also using an Agilent 100 HPLC instrument.
(§3) As it is believed that two putative catalytic triads, similar to those in the serine proteases, are involved in the reaction mechanism of glutamine synthetase, certain of the mutants were also assayed by HPLC in the presence of the serine protease inhibitors, AEBSF and PMSF, in order to assess the effect that these inhibitors had on the enzyme. The enzymes assessed were the adenylylated WT enzyme, the deadenylylated WT enzyme, and the mutant enzymes S52A, S52A Y397V, S53A, S53A Y397V, S52A S53A and S52A S53A Y397V. The enzymes were pre-incubated for 60 minutes in the presence of 1 mM PMSF or 1 mM AEBSF. A control reaction was set up for each enzyme, which contained no inhibitor. Each enzyme was then added to assays set up as described above. The assay was allowed to proceed for 60 minutes, then stopped by the addition of […] of 50% TCA, after which they were analysed by HPLC. All assays were run in triplicate.
(§4) In addition to the γ-glutamyl transferase assays, assays were also developed to measure the rate of conversion of ATP and glutamate to ADP and glutamine by HPLC. These were set up as single assays but analysed separately for glutamate and glutamine and ATP and ADP. The conversion rates for glutamate to glutamine, in both the presence of Mn^2+ and Mg^2+ by glutamine synthetase, is referred to as the […] specific activity and is presented in μmoles/min/mg protein. The conversion rates for ATP to ADP, in both the presence of Mn^2+ and Mg^2+ by glutamine synthetase, is referred to as the ADP-based specific activity and is presented in μmoles/min/mg protein. The percentage of conversion was also calculated by dividing the glutamine-based specific activity by the ADP-based specific activity, and this value is interpreted as the ability of the enzyme to complete both steps of the reaction, i.e., glutamate to glutamine and ATP to ADP, at an equivalent level of efficiency.

[2] = biological target: T2, deadenylylated WT enzyme, WT (DD) glutamine synthetase (Escherichia coli, UniProt P0A9C5); assay: as above; type: biochemical, E. coli; settings: 1 mM inhibitor; for % Reduction in ADP-based Specific Activity / % Reduction in Glutamine-based Specific Activity: 60 min pre-incubation, vs no-inhibitor control, positive = activity increased; for % Conversion: glutamine-based divided by ADP-based specific activity
T2 construct: made in house; host or cells: E. coli carrying pBSK-ECgln (pBluescript II SK+), continuous culture; YMC11 is the expression strain named for this plasmid
T2 sequence (P0A9C5 2-469 limits assumed): T1 sequence (P0A9C5 2-469 S53A/S54A limits assumed) with A52S, A53S
Experimental: as §1, §2, §3, §4

SMILES: NCCc1ccc(S(=O)(=O)F)cc1 [AEBSF]
- % Reduction in ADP-based Specific Activity ([1]; Mg assay): −41.91%
- % Reduction in Glutamine-based Specific Activity ([1]; Mg assay): −17.82%
- % Conversion ([1]; Mg assay): 115%
- % Reduction in ADP-based Specific Activity ([1]; Mn assay): −16.20%
- % Reduction in Glutamine-based Specific Activity ([1]; Mn assay): −7.69%
- % Conversion ([1]; Mn assay): 98%
- % Reduction in ADP-based Specific Activity ([2]; Mg assay): −14.98%
- % Reduction in Glutamine-based Specific Activity ([2]; Mg assay): −8.43%
- % Conversion ([2]; Mg assay): 82%
- % Reduction in ADP-based Specific Activity ([2]; Mn assay): −4.73%
- % Reduction in Glutamine-based Specific Activity ([2]; Mn assay): −2.23%
- % Conversion ([2]; Mn assay): 94%

SMILES: O=S(=O)(F)Cc1ccccc1 [PMSF]
- % Reduction in ADP-based Specific Activity ([1]; Mg assay): −23.74%
- % Reduction in Glutamine-based Specific Activity ([1]; Mg assay): −23.24%
- % Conversion ([1]; Mg assay): 82%
- % Reduction in ADP-based Specific Activity ([1]; Mn assay): −13.56%
- % Reduction in Glutamine-based Specific Activity ([1]; Mn assay): −16.92%
- % Conversion ([1]; Mn assay): 85%
- inhibition of the enzyme (in words) ([1]; S52A S53A (double serine mutant), HPLC assays): did not significantly inhibit; also recorded: not significantly inhibited
- % Reduction in ADP-based Specific Activity ([2]; Mg assay): −6.07%
- % Reduction in Glutamine-based Specific Activity ([2]; Mg assay): −16.55%
- % Conversion ([2]; Mg assay): 67%
- % Reduction in ADP-based Specific Activity ([2]; Mn assay): −3.53%
- % Reduction in Glutamine-based Specific Activity ([2]; Mn assay): −17.69%
- % Conversion ([2]; Mn assay): 78%
